Assay results taken from patent publication US20190209465A1, “PROCESS FOR PREPARING PHARMACEUTICAL OPHTHALMIC COMPOSITIONS OF BRINZOLAMIDE” (priority 2016, published 2019).

What was measured:
[1] = cited from earlier work
[2] = Solubility study of ophthalmically acceptable excipients (visual, incremental addition of drug, then heating); format: physicochemical
[3] = Solubility study of oil/surfactant combination (excess drug, heating, centrifugation, HPLC of supernatant); format: physicochemical; conditions: for mg API dissolved temperature: on heating; for Assay: supernatant by HPLC
Procedure: Additional solubility trials were planned in order to see the impact of surfactant/oil combination on solubility of Brinzolamide. 5 g of each of the vehicles of Table 2 was added in 10 ml beakers under stirring, containing excesses of drug. Afterwards, the mixture was heated to improve solubilization. After equilibrium was achieved, the mixture was centrifuged at 4000 rpm for 10 minutes and the supernatant was quantified by high-performance liquid chromatography.

[4] = as above; format: physicochemical; conditions: in PEG 200 (5 g), on heating
[5] = in Kolliphor EL + IPM (5 g + 1 g)
[6] = in Kolliphor EL + IPM (5 g + 3 g)
[7] = in Kolliphor EL + IPM (5 g + 5 g)
[8] = in Tween 80 + IPM + Kolliphor EL (5 g + 1 g + 3.1 g)
[9] = in Tween 80 + IPM + Kolliphor EL (5 g + 1 g + 4.6 g)
[10] = in Tween 80 + IPM + Kolliphor EL (5 g + 1 g + 12.5 g)

For `CCN[C@H]1CN(CCCOC)S(=O)(=O)c2sc(S(N)(=O)=O)cc21` [Brinzolamide, (R)-4-ethylamino-3,4-dihydro-2-(3-methoxy) propyl-2H-thieno[3,2-e]-1,2-thiazine-6-sulfonamide 1, 1 dioxide], the “solubility in alcohol and methanol” value ([1]; alcohol and methanol) is given as “slightly soluble”, the “solubility in water versus pH” value ([1]; water, different pH) is given as “pH dependent with minimal solubility at neutral pH and increased solubility at more basic or acidic pH” and the solubility in water ([1]; water) is given as “insoluble”. For the same compound, the “Brinzolamide dissolved in 10 g” value ([2]; in Anfopon) was 60 mg, the “Brinzolamide dissolved in 10 g” value ([2]; in Dubcare Olga SF) was 60 mg and the “Brinzolamide dissolved in 10 g” value ([2]; in Isopropyl Myristate (Kollicream IPM)) was 60 mg. The “Brinzolamide dissolved in 10 g” value ([2]; in Kolliphor EL) was 1015.1 mg, the “Brinzolamide dissolved in 10 g” value ([2]; in Kollisolv GTA) was 210 mg and the “Brinzolamide dissolved in 10 g” value ([2]; in Myritol 318) was 60 mg. For the same compound, the “Brinzolamide dissolved in 10 g” value ([2]; in PEG200) was 2000 mg, the “Brinzolamide dissolved in 10 g” value ([2]; in Radia 7104) was 60 mg and the “Brinzolamide dissolved in 10 g” value ([2]; in Sesame Oil) was 60 mg. The “Brinzolamide dissolved in 10 g” value ([2]; in Silicone Oil) was 60 mg, the “Brinzolamide dissolved in 10 g” value ([2]; in Transcutol) was 800 mg and the “Brinzolamide dissolved in 10 g” value ([2]; in Tween 80) was 2000 mg. For the same compound, the API dissolved ([3]; in Kolliphor EL (5 g)) was 203.0 mg/mL, the Total mg dissolved ([3]; in Kolliphor EL (5 g)) was 1015.1 mg and the “mg API dissolved @ RT” value ([3]; in Kolliphor EL (5 g)) was 502.6 mg. For the same compound, the “mg API dissolved temperature” value ([3]; in Kolliphor EL (5 g)) was 512.5 mg, the “Assay” value ([3]; in Kolliphor EL (5 g)) was 177.65 mg/mL and the API dissolved [3, 5] was 167.1 mg/mL. The Total mg dissolved [3, 5] was 1002.3 mg, the “mg API dissolved @ RT” value [3, 5] was 802.3 mg and the “mg API dissolved temperature” value [3, 5] was 200.0 mg. For the same compound, the “Assay” value [3, 5] was 104.70 mg/mL, the API dissolved [3, 6] was 126.6 mg/mL and the Total mg dissolved [3, 6] was 1012.7 mg. The “mg API dissolved @ RT” value [3, 6] was 500.5 mg, the “mg API dissolved temperature” value [3, 6] was 512.2 mg and the “Assay” value [3, 6] was 76.75 mg/mL. For the same compound, the API dissolved [3, 7] was 70.8 mg/mL, the Total mg dissolved [3, 7] was 708.0 mg and the “mg API dissolved @ RT” value [3, 7] was 401.3 mg. For the same compound, the “mg API dissolved temperature” value [3, 7] was 306.7 mg, the “Assay” value [3, 7] was 68.97 mg/mL and the API dissolved ([3]; in PEG 200 (5 g)) was 390.1 mg/mL. The Total mg dissolved ([3]; in PEG 200 (5 g)) was 1950.5 mg, the “mg API dissolved @ RT” value ([3]; in PEG 200 (5 g)) was 908.2 mg and the “Assay” value ([3]; in PEG 200 (5 g)) was 236.63 mg/mL. The API dissolved ([3]; in Transcutol (5 g)) was 400.0 mg/mL, the Total mg dissolved ([3]; in Transcutol (5 g)) was 2.000 mg and the “mg API dissolved @ RT” value ([3]; in Transcutol (5 g)) was 1008.5 mg. The “mg API dissolved temperature” value ([3]; in Transcutol (5 g)) was 991.5 mg, the “Assay” value ([3]; in Transcutol (5 g)) was 189.94 mg/mL and the API dissolved ([3]; in Tween 80 (5 g)) was 204.2 mg/mL. For the same compound, the Total mg dissolved ([3]; in Tween 80 (5 g)) was 1020.9 mg, the “mg API dissolved @ RT” value ([3]; in Tween 80 (5 g)) was 501.9 mg and the “mg API dissolved temperature” value ([3]; in Tween 80 (5 g)) was 519.0 mg. The “Assay” value ([3]; in Tween 80 (5 g)) was 169.08 mg/mL, the API dissolved ([3]; in Tween 80 + IPM (5 g + 1 g)) was 133.8 mg/mL and the Total mg dissolved ([3]; in Tween 80 + IPM (5 g + 1 g)) was 802.8 mg. For the same compound, the “mg API dissolved @ RT” value ([3]; in Tween 80 + IPM (5 g + 1 g)) was 400.9 mg, the “mg API dissolved temperature” value ([3]; in Tween 80 + IPM (5 g + 1 g)) was 401.9 mg and the “Assay” value ([3]; in Tween 80 + IPM (5 g + 1 g)) was 113.05 mg/mL. The API dissolved ([3]; in Tween 80 + IPM (5 g + 3 g)) was 100.3 mg/mL, the Total mg dissolved ([3]; in Tween 80 + IPM (5 g + 3 g)) was 802.7 mg and the “mg API dissolved @ RT” value ([3]; in Tween 80 + IPM (5 g + 3 g)) was 400.3 mg. For the same compound, the “mg API dissolved temperature” value ([3]; in Tween 80 + IPM (5 g + 3 g)) was 402.4 mg, the “Assay” value ([3]; in Tween 80 + IPM (5 g + 3 g)) was 84.49 mg/mL and the API dissolved ([3]; in Tween 80 + IPM (5 g + 5 g)) was 90.9 mg/mL. For the same compound, the Total mg dissolved ([3]; in Tween 80 + IPM (5 g + 5 g)) was 908.6 mg, the “mg API dissolved @ RT” value ([3]; in Tween 80 + IPM (5 g + 5 g)) was 400.0 mg and the “mg API dissolved temperature” value ([3]; in Tween 80 + IPM (5 g + 5 g)) was 508.6 mg. The “Assay” value ([3]; in Tween 80 + IPM (5 g + 5 g)) was 52.08 mg/mL, the API dissolved [3, 8] was 110.9 mg/mL and the Total mg dissolved [3, 8] was 1009.1 mg. For the same compound, the “mg API dissolved @ RT” value [3, 8] was 501.5 mg, the “mg API dissolved temperature” value [3, 8] was 507.6 mg and the “Assay” value [3, 8] was 88.93 mg/mL. The API dissolved [3, 9] was 110.1 mg/mL, the Total mg dissolved [3, 9] was 1002.1 mg and the “mg API dissolved @ RT” value [3, 9] was 404.0 mg. For the same compound, the “mg API dissolved temperature” value [3, 9] was 602.1 mg, the “Assay” value [3, 9] was 102.12 mg/mL and the API dissolved [3, 10] was 43.5 mg/mL. The Total mg dissolved [3, 10] was 805.6 mg, the “mg API dissolved @ RT” value [3, 10] was 403.4 mg and the “mg API dissolved temperature” value [3, 10] was 402.2 mg. The “Assay” value [3, 10] was 39.65 mg/mL and the “mg API dissolved temperature” value [4] was 1042.3 mg.
